Source: publication doi:10.1101/507434v1 (bioRxiv, 2018)
Where two headings read alike, the source gives them in different places. Bridge positions count the residues as written; N and C are the ends. Square brackets hold non-standard residues; d marks the D form. Ends that are not written are not given here. Peptide text beside a SMILES is read from it. d2Nal = N[C@H](Cc1ccc2ccccc2c1)C(=O)O; Nle = CCCC[C@H](N)C(=O)O

Tests used:
[1] = Pharmacokinetics of TCMCB07 in anesthetized rats: plasma and bile levels; assay type: in vivo, Sprague-Dawley rats
Lewis sarcoma rat model = test: Lewis sarcoma rat cancer cachexia model; assay type: in vivo; conditions: tumor-bearing rats, SC; for summary 6-Day food intake: two daily doses
[2] = tested on: rats given LPS to induce cachexia; test: LPS; assay type: in vivo, rat; conditions: for body weight as percent of pre-LPS baseline (Fig 1 Panel D) / food intake (Fig 1 Panel C): rats given LPS, peptide IP at 2mg/kg, 24 hours following challenge, 8/group; for oral anticachexia activity: LPS challenge, oral route of peptide administration
[3] = Plasma and liver concentration of antiviral peptides after oral gavage in mice; assay type: in vivo, female mice; conditions: for level at time molar at 1 h / level at time molar at 2.5 h / level at time molar at 0.5 h / level at time molar at 2 h / level at time molar at 4 h: female, mouse, po; for level at time molar at 1 h / level at time molar at 2.5 h: 72 mg/kg; for level at time molar at 0.5 h / level at time molar at 2 h / level at time molar at 4 h: 60 mg/kg
[4] = tested on: hepatitis C virus (HCV) RNA; test: Standard solution assays of anti-hepatitis C activity; assay type: biochemical
[5] = ref Gallagher et al., 2016, cited from earlier work; for plasma half-life: separate experiment, in vitro or in vivo not stated
[6] = tested on: orthotopic human breast cancer cell line transplant (cell line MDA-MB-231); conditions: ref Gallagher et al., 2016; cited from earlier work
[7] = ref Iusuf et al., 2008; cited from earlier work
HCV replicon = conditions: cellular HCV replicon assay; ref Bradford and Cowan, 2012; cited from earlier work

**Q.** For CCCC[C@H](NC(C)=O)C(=O)N[C@H]1CC(=O)NCCCC[C@@H](C(=O)N[C@@H](C(=O)N2CCC[C@@H]2C(N)=O)C(C)C)NC(=O)[C@H](Cc2c[nH]c3ccccc23)NC(=O)[C@H](CCCN=C(N)N)NC(=O)[C@@H](Cc2ccc3ccccc3c2)NC(=O)[C@@H]2CCCN2C1=O [TCMCB07] (Ac-[Nle]DP[d2Nal]RWK[dV][dP]-NH2; lactam 2-7), which Tmax ([1]; Sprague-Dawley, rat, plasma, sc, 3 mg/kg) is on record?
**A.** 2.5 h

**Q.** What about the “in vivo mechanism of clearance” value ([1]; anesthetized rats, 3mg/kg SC (Fig. 3)) of the same compound?
**A.** hepatic blood-to-bile transport

**Q.** Which “tumor weight / tumor growth” value (Lewis sarcoma rat model; 1.5 and 3 mg/kg BW/day, data not shown) does the source give for CCCC[C@H](NC(C)=O)C(=O)N[C@H]1CC(=O)NCCCC[C@@H](C(=O)N[C@@H](C(=O)N2CCC[C@@H]2C(N)=O)C(C)C)NC(=O)[C@H](Cc2c[nH]c3ccccc23)NC(=O)[C@H](CCCNC(=N)N)NC(=O)[C@@H](Cc2ccc3ccccc3c2)NC(=O)[C@@H]2CCCN2C1=O [TCMCB07] (Ac-[Nle]DP[d2Nal]RWK[dV][dP]-NH2; lactam 2-7) here?
**A.** no effect on tumor growth

**Q.** And the “summary 6-Day food intake” value (Lewis sarcoma rat model; total 1.5 mg/kg BW/day (LB07))?
**A.** not different than Sham/saline controls

**Q.** And the “summary 6-Day food intake” value (Lewis sarcoma rat model; total 3mg/kg BW/day (HB07))?
**A.** not different than Sham/saline controls

**Q.** And the “body weight as percent of pre-LPS baseline (Fig 1 Panel D)” value (shortened to “body weight as percent”) [2]?
**A.** produced a significant weight gain

**Q.** And the “food intake (Fig 1 Panel C)” value [2]?
**A.** stimulated appetite

**Q.** And the oral anticachexia activity ([2]; rats)?
**A.** shown to have oral anticachexia activity

**Q.** With CC(=O)NCC(=O)NCC(=O)N[C@@H](Cc1c[nH]cn1)C(=O)N[C@H]1CC(=O)NCCCC[C@@H](C(=O)N[C@@H](C(=O)N2CCC[C@@H]2C(N)=O)C(C)C)NC(=O)[C@H](CCCCN)NC(=O)[C@H](Cc2ccccc2)NC(=O)[C@H](CCCNC(=N)N)NC(=O)[C@H](Cc2ccc(O)cc2)NC1=O [TCMP01] (Ac-GGHDYRFKK[dV][dP]-NH2; lactam 4-9) as the compound, how does the level at time molar at 1 h ([3]; liver) read?
**A.** 14 nM

**Q.** And the level at time molar at 2.5 h ([3]; liver)?
**A.** 4 nM

**Q.** And the level at time molar at 1 h ([3]; plasma)?
**A.** 1000 nM

**Q.** What about the level at time molar at 2.5 h ([3]; plasma) of the same compound?
**A.** 24 nM

**Q.** And the “solution antihepatitis activity relative to the parent peptide Metallo-drug 2-Cu” value [4]?
**A.** within a factor of two

**Q.** Which level at time molar at 0.5 h ([3]; liver) does the source give for CC(=O)NCC(=O)NCC(=O)N[C@@H](Cc1c[nH]cn1)C(=O)N[C@H]1CC(=O)NCCCC[C@@H](C(=O)N[C@@H](C(=O)N2CCC[C@@H]2C(N)=O)C(C)C)NC(=O)[C@H](CCCCN)NC(=O)[C@H](Cc2ccccc2)NC(=O)[C@H](CCCNC(=N)N)NC(=O)[C@H](Cc2ccc(O)cc2)NC(=O)[C@@H]2CCCN2C1=O [TCMP03] (Ac-GGHDPYRFKK[dV][dP]-NH2; lactam 4-10) here?
**A.** 43 nM

**Q.** And the level at time molar at 2 h ([3]; liver)?
**A.** 30 nM

**Q.** And the level at time molar at 4 h ([3]; liver)?
**A.** 4 nM

**Q.** What about the level at time molar at 0.5 h ([3]; plasma) of the same compound?
**A.** 2910 nM

**Q.** What about the level at time molar at 2 h ([3]; plasma) of the same compound?
**A.** 75700 nM

**Q.** And the level at time molar at 4 h ([3]; plasma)?
**A.** 384 nM

**Q.** What about the “enhancement of hepatic (target tissue) uptake relative to TCMP01” value ([3]; mice, oral gavage, Table 3) of the same compound?
**A.** 4 fold

**Q.** What about the “solution antihepatitis activity relative to the parent peptide Metallo-drug 2-Cu” value [4] of the same compound?
**A.** within a factor of two

**Q.** Which results are given for “Ac-Nle-^1 c(Asp-Pro-D-Nal2’-Arg-Trp-Lys)-D-Pro-D-Val-NH2 (sidechain bridge or staple) [TCMCB02]”?
**A.** oral anticachexia activity ([2]; rats): no oral anticachexia activity; overnight body weight gain ([2]; rats, parenteral peptide after parenteral LPS, end of 12 hr dark cycle, n=6): ~5%

**Q.** Which plasma half-life [5] does the source give for “Ac-Nle-c(Asp-Arg-Val-Tyr-Ile-His-Pro-Lys)-D-Val-D-Pro-NH2 (sidechain bridge or staple) [TCANG05]” here?
**A.** 50 h

**Q.** And the “stability compared to angiotensin 1-7” value ([5]; using in vitro and in vivo assays)?
**A.** greatly enhanced stability

**Q.** And the oral activity [6]?
**A.** orally active

**Q.** For “Ac-Nle-c[Asp-Pro-D-Nal(2′)-Arg-Trp-Lys]-β-Pro-β^2-Val-NH2 (sidechain bridge or staple) [TCMCB05]”, which “body weight as percent” value [2] is on record?
**A.** produced a significant weight gain

**Q.** What about the “food intake (Fig 1 Panel C)” value [2] of the same compound?
**A.** stimulated appetite

**Q.** With “Ac-Nle-c[Asp-Pro-D-Nal(2′)-Arg-Trp-Lys]-β-Pro-β^3-Val-NH2 (sidechain bridge or staple) [TCMCB06]” as the compound, how does the “body weight as percent” value [2] read?
**A.** no weight gain

**Q.** For “Asp-Arg-Val-Tyr-Ile-His-Pro-OH [angiotensin^1-7, reference compound]”, which plasma half-life [5] is on record?
**A.** 0.5 h

**Q.** What about the plasma half-life [7] of the same compound?
**A.** ~0.5 h

**Q.** What about the oral activity [6] of the same compound?
**A.** not orally active

**Q.** Which oral availability ([3]; mice, oral gavage, also short circulating half-life and poor liver uptake stated) does the source give for “GGHY[dR]FK [Metallo-drug 2-Cu, reference compound]” here?
**A.** no oral availability

**Q.** And the antiviral activity (HCV replicon)?
**A.** confirmed
